A word on the melting point: it is the temperature, or range, at which the solid turns liquid.

These results are taken from a melting point compilation (Tetko et al.).

Consider `CC1CCC2(OC1)OC1CC3C4CCC5CC(O)CCC5(C)C4CCC3(C)C1C2C` (centres undefined), for which the melting point was 206 °C. The same measure for `Sc1nccs1`: 78.5 °C.

Consider `NC1=C(Cl)C(=O)c2ccccc2C1=O`, for which the melting point was 201 °C. Turning to `O=C(CBr)c1cccc(Cl)c1`, the melting point was 39 to 41 °C. Regarding `CCCCC(=O)c1ccc(F)cc1`, the melting point was 27 °C. `Cc1cccc(/N=N/c2c(N)nn3c(C(F)(F)F)cc(=O)[nH]c23)c1` returned a melting point of 280 °C. The compound `CC(=NNc1nc(C)cc(C)n1)c1ccccc1C` returned a melting point of 176 °C. The compound `CCCCCCCCCCCCCCCCCC(=O)OCCOC(=O)CCCCCCCCCCCCCCCCC` showed a melting point of 79 °C. The same measure for `Cc1oc(-c2ccccc2)nc1CN`: 42 to 46 °C; for `N#CCc1c(F)cccc1Cl`: 42 °C. The same measure for `Nc1ccc(O)c2c1C(=O)c1ccccc1C2=O`: 216 °C.

Compound `Fc1cc(Cl)cc(CBr)c1` displayed a melting point of 25 to 30 °C. In turn, `O=C1c2ccccc2C(=O)N1CC1CNCCO1` (centres undefined) gave a melting point of 138 to 143 °C.

`C(=C(c1ccccc1)c1ccccc1)=C(c1ccccc1)c1ccccc1` registered a melting point of 140 °C. The compound `Cn1cnc2c1c(=O)[nH]c(=O)n2C` had a melting point of 357 °C. Compound `c1ccc2c(c1)cc1ccc3cc4ccccc4c4ccc2c1c34` registered a melting point of 282 °C. For `C=COCCCCCCCCCC`, the melting point is -41 °C.

The compound `COc1ccccc1C1Nn2c(nnc2-c2ccc([N+](=O)[O-])cc2)S1` (centres undefined) yielded a melting point of 152 °C. For the compound `CCCc1c(NCC)ccc(C(C)=O)c1O`, the melting point fell in the range of 45 to 48 °C.

As for `O=CC1=C(Cl)c2cc(F)ccc2OC1`, the melting point lay within 84 to 86 °C. The same measure for `CCCCCCCC(=O)Oc1c(I)cc(C#N)cc1I`: 59.5 °C; for `Cc1nc(NC(=O)NS(=O)(=O)c2cccs2)nc(C)c1C`: 188 to 189 °C.

`C1CCC(CCCC2CCCCC2)CC1` came in with a melting point of -17 °C. The same measure for `CCCCOCCOC(C)=O`: -63 °C; for `NC(=O)/C(=C\c1ccc(F)cc1)c1nc2ccccc2s1`: 178 °C. In turn, `Cc1cc(C=O)no1` gave a melting point of 31 to 33 °C. The same measure for `O=C1c2ccccc2C(=O)c2c1ccc1ccccc21`: 170 °C. For `FC(F)(F)COc1ccc(OCC(F)(F)F)cc1` the value was 76 °C.

In turn, `COC(=O)[C@@H]1C[C@@H](O)CN1C(=O)OC(C)(C)C` displayed a melting point of 91 to 96 °C. For `CCc1cc(C(N)=S)ccn1` the value was 164 °C; for `O=S(=O)(O)c1ccc(-c2ccc(S(=O)(=O)O)cc2)cc1`, 72.5 °C; for `COc1ccc(NC(=O)c2ccccc2)cc1`, 153 °C. The same measure for `CCC(C)(CC)C(C)(C)C`: -42.5 °C; for `c1ccc2c(c1)CCc1ccccc1C2`: 72 to 76 °C. For `Cc1nc2ccccc2[nH]c(=O)c1=NNc1cc(-c2ccccc2)n[nH]1` the value was 160 °C. In the case of `O=Cc1c(Cl)ccc(Cl)c1Cl`, the melting point lay in the range of 86 to 89 °C. The compound `CC(C)(C)OC(=O)NC1(C(=O)O)CCc2ccccc21` (racemic) gave a melting point of 156 to 159 °C. `COc1ccc(OC)c(N=C=O)c1` came in with a melting point of 40 °C. The same measure for `O=[N+]([O-])c1cccnc1Oc1ccc(Cl)cc1`: 89 to 90 °C.

For `CN1C(=O)NC(=O)C(C)(C2=CCCCC2)C1=O` (centres undefined), the melting point is 146 °C. The same measure for `C=CCOC(=O)CC(C)=O`: -85 °C; for `O=C(O)CC1CC(=O)OC1C(=O)O` (centres undefined): 159 °C. The same measure for `O=C(O)c1ccc(Br)nc1`: 184 °C; for `N#Cc1cccc(CBr)c1`: 94 °C; for `COc1cc2c(cc1OC)C(=O)C(CC1CCN(Cc3ccccc3)CC1)C2` (centres undefined): 207 °C.

The compound `CCOC(=O)C(C#N)=CNc1ccccc1Cl` had a melting point of 165 to 167 °C. For the compound `Nc1nc(O)cc(C(F)(F)F)n1`, the melting point turned out to be 290 °C. The same measure for `CC(=O)Oc1cccc([N+](=O)[O-])c1`: 54 °C; for `O=C(O)CCSCCCSCCC(=O)O`: 107 to 109 °C.

`OCCN(CCO)CCCc1ccc(COc2ccccc2)cc1` yielded a melting point of 63 to 64 °C. The same measure for `O=C(O)Cc1c[nH]c2ccc(O)cc12`: 162 to 165 °C; for `Clc1cc(Cl)c(Cl)c(Br)c1`: 59 °C. The same measure for `COC(=O)c1ccc2nccnc2c1`: 99 to 100 °C.

On to `COc1cc(O)c2c(c1)OC(c1ccc(O)cc1)CC2=O` (centres undefined), for which the melting point worked out at 152 °C.

Consider `CN(C)c1cccc2c(S(=O)(=O)F)cccc12`, for which the melting point was 52 °C. With `CC(C)(C)OC(=O)NCC1CCNCC1`, the melting point is 106 to 108 °C. For `Cc1cc2nc3[nH]c(=O)[nH]c(=O)c3nc2cc1C` the value was 300 °C.

`NS(=O)(=O)c1cccc(Br)c1` showed a melting point of 155 to 158 °C. The same measure for `O=C1C=CC(=O)C1`: 37 °C. For `Nc1ccc2scnc2c1`, the melting point fell in the range of 55 to 59 °C.

`COC(=O)c1cc(C)n(C)c1C` gave a melting point of 117 °C.

The compound `CC(=O)N(C)c1cccc(N(C)C(C)=O)c1` returned a melting point of 152 °C. For `COc1cc(I)c(OC)cc1I` the value was 171 to 173 °C; for `O=C(O)Cc1cc(O)ccc1O`, 153 °C. For `Cc1cc(C(F)(F)F)n2nc(N)c(/N=N/c3c(Br)cc(Br)cc3Br)c2n1` the value was 98 to 100 °C. The same measure for `CC(C)N1CSc2nnc(-c3cccc([N+](=O)[O-])c3)n2C1`: 165 °C; for `Nc1ccc(Cl)cc1C(=O)NCc1cccs1`: 157 to 158 °C. As for `CC(=O)C(=CNc1ccc(C)cc1)Cc1ccccc1`, the melting point is 103 °C. For `CC(C)c1cccc(O)c1O` the value was 47 °C. The same measure for `Nc1nc(=O)n(C2CSC(CO)O2)cc1F` (centres undefined): 138 °C; for `CCSc1sc(C(=O)OC)c2c1C(=O)CC(C)(C)C2`: 116 to 119 °C. For `CC(C=CC=C(C)C=CC1=C(C)CCCC1(C)C)=CC=CC=C(C)C=CC=C(C)C=CC1=C(C)CC(O)CC1(C)C` (centres undefined) the value was 160 °C; for `O=C(O)c1cc(O)cc(C(=O)O)c1`, 293 °C; for `O=C(c1ccc2ccccc2c1)c1noc(-c2ccc3ccccc3c2)c1S(=O)(=O)c1ccccc1`, 120 °C. Compound `CC1(C)SC2C(NC(=O)COc3ccccc3)C(=O)N2C1C(=O)O` (centres undefined) yielded a melting point of 124 °C.

Turning to `COc1cc(F)c(C=O)cc1OC`, the melting point was 99 °C. With `NS(=O)(=O)c1cc2c(s1)S(=O)(=O)CCC2=O`, the melting point came to 242 °C.

As for `CCOc1ccc(-c2nnc3n2NC(c2ccccc2O)S3)cc1` (centres undefined), the melting point amounted to 177 °C.

Regarding `Brc1ccc(Oc2ccccc2)cc1Br`, the melting point was below 20 °C.

Compound `Cc1nc2cc(Cl)ccc2s1` returned a melting point of 69 °C. `CCOC(=O)c1cc(-c2ccccc2)on1` registered a melting point of 48 to 49.5 °C.

The compound `CCN(CC)c1ccc(C=O)c(O)c1` displayed a melting point of 62 °C.

Compound `Nc1cccnc1Oc1ccc(F)cc1F` showed a melting point of 96 to 97 °C. The same measure for `C=C(C)CNc1ccc(C(C)C(=O)O)cc1` (centres undefined): 107 °C. The same measure for `Cc1nc(C)c(C=O)s1`: 30 °C; for `O=[N+]([O-])C=Cc1ccccc1C(F)(F)F`: 60 to 62 °C.

Take `NCc1ccccc1Sc1ccccc1CO`: the melting point came to 97 °C.

`Cn1cnc(S(N)(=O)=O)c1` had a melting point of 222 to 224 °C. Take `CC(C(=O)O)N(C)C(=O)OC(C)(C)C` (centres undefined): the melting point turned out to be 90 °C.

Compound `COc1ccc(C(O)c2ccc(OC)cc2)cc1` came in with a melting point of 70 °C. The same measure for `O=C(CBr)c1ccc(-c2ccccc2)cc1`: 125 °C; for `Fc1ccc2nc(C(F)(F)F)cc(Cl)c2c1`: 78 to 82 °C; for `Nc1cc(O)nc(N)n1`: 285 to 286 °C. The same measure for `Cc1cc(N)c(Cl)cc1F`: 69 to 71 °C; for `BrCC(Br)(Br)Br`: 0 °C. The compound `CON(C(=O)c1cc(C)oc1C)C1CCCCC1` showed a melting point of 33 °C. In turn, `N=C1NC(=O)C(=NNc2ccccc2)S1` returned a melting point of 210 °C. `CC(=NNC(N)=O)c1cccc(C(C)=NNC(N)=O)c1` showed a melting point of 238 °C. The same measure for `CCC(C)Cl` (centres undefined): -140 °C.

On to `Nc1cc(Cl)cc(Cl)c1O`, for which the melting point was 97 °C. In the case of `COc1cccc2onc(N)c12`, the melting point was in the range of 140 to 142 °C.

`[O-][n+]1nc(-n2ccnc2)nc2ccc(Cl)cc21` yielded a melting point of 182 °C. The same measure for `O=Cc1ccncc1`: -4 °C; for `COc1ccc(C(=O)NN=C(C)c2c(O)c3ccccc3n(-c3ccccc3)c2=O)cc1`: 218 °C. In turn, `CC=CC(=O)c1ccccc1` had a melting point of 20.5 °C. For `C=Cc1ccco1` the value was -94 °C. For `CSC(S)=Nc1ccc(C)cc1` the value was 175 to 176 °C.

Compound `C=CCOCC(CC)(CO)CO` came in with a melting point of -10 °C. The same measure for `CC(C)CCCC(C)C1CCC2C3CCC4=CC(O)CCC4(C)C3CCC12C` (centres undefined): 132 °C; for `Cn1c(=O)c(C2=NNC(=O)C2=CNc2ccc(Br)cc2)c(O)c2ccccc21`: 293 °C; for `CSc1nc(N)c2ccccc2n1`: 233 to 235 °C.

In turn, `OCc1cc(O)ccc1O` had a melting point of 100 °C. `COC(=O)c1cccc(N)c1` registered a melting point of 52 to 55 °C. The compound `N#Cc1ccc(N2CCC(C(=O)NN)CC2)cc1` returned a melting point of 198 to 202 °C.
